# Measurements: patent US12350270B2, “Antimalarial agents” (Merck Sharp & Dohme LLC, priority 2019, dated 2025)
# Test system: parasites (ring stage, in human red blood cell culture)
# Test: Parasite LDH growth assay (antiparasite potency, Parasite Assay)
# Assay type: cell-based, Plasmodium falciparum
# Details: 0.7% rings, 2% haematocrit, 72 hours at 37° C., LDH readout of parasite growth
# Method: Assessing Antiparasite Potency in a Parasite LDH Growth Assay (Parasite Assay)
# The parasite stock was maintained at 4% haematocrit in RPMI-Hepes media buffered with sodium bicarbonate and supplemented with 5% heat inactivated human serum and 0.5% albumax.
# On the day of assay set up, a blood smear of the parasite culture was Giemsa stained and counted. The parasitemia was adjusted to 0.7% rings and the haematocrit was diluted to 2% in RPMI-Hepes media buffered with sodium bicarbonate and supplemented with 5% heat inactivated human serum and 0.5% albumax. 30 ul of diluted parasites are then added into 10 ul of media+compound in pre-prepared Greiner TC assay plates. Parasite assay plates were placed in gassed humidified boxes in single layer and allowed to incubate at 37° C. for 72 hours. After 72 hours growth, assay plates are sealed with parafilm and frozen flat, in single file at −80° C. overnight. On the following day, assay plates are allowed to thaw at room temperature for 4 hours to which an LDH assay is performed to measure parasite growth.
row,SMILES,EC50
1,"CC1(C)CC(=O)N([C@@H]2CCOc3ccc(C(=O)N[C@H]4CC(C)(C)Oc5ccccc54)cc32)C(=N)N1 [Example 12A, (R)-N-((S)-2,2-dimethylchroman-4-yl)-4-(2-imino-4,4-dimethyl-6-oxotetrahydropyrimidin-1(2H)-yl)chromane-6-carboxamide]",1.1 nM

# Same assay, conditions: Plasmodium falciparum, Erythrocyte, 72 h, 0.7% rings, 2% haematocrit, 72 hours at 37° C., LDH readout of parasite growth
row,SMILES,EC50
1,"CCC1(CC)CC(=O)N([C@@H]2CCOc3ccc(C(=O)N[C@H]4CC(C)(C)Oc5ccc(F)cc54)cc32)C(=N)N1 [Example 7A, (R)-4-(4,4-diethyl-2-imino-6-oxotetrahydropyrimidin-1(2H)-yl)-N-((S)-6-fluoro-2,2-dimethylchroman-4-yl)chromane-6-carboxamide]",0.4 nM
2,"CCC1(CC)CC(=O)N([C@@H]2CCOc3ccc(C(=O)N[C@@H]4CC(C)(C)Oc5ccc(F)cc54)cc32)C(=N)N1 [Example 7B, (R)-4-(4,4-diethyl-2-imino-6-oxotetrahydropyrimidin-1(2H)-yl)-N-((R)-6-fluoro-2,2-dimethylchroman-4-yl)chromane-6-carboxamide]",19 nM
3,"CC(C)[C@]1(C)CC(=O)N([C@@H]2CCOc3ccc(C(=O)N[C@H]4CC(C)(C)Oc5ccccc54)cc32)C(=N)N1 [Example 10A, (R)-N-((S)-2,2-dimethylchroman-4-yl)-4-((S)-2-imino-4-isopropyl-4-methyl-6-oxotetrahydropyrimidin-1(2H)-yl)chromane-6-carboxamide]",0.5 nM
4,"CC(C)[C@]1(C)CC(=O)N([C@@H]2CCOc3ccc(C(=O)N[C@@H]4c5ccccc5OC(C)(C)C4O)cc32)C(=N)N1 (stereo partly drawn) [Example 11B, (4R)-N-(3-hydroxy-2,2-dimethylchroman-4-yl)-4-((S)-2-imino-4-isopropyl-4-methyl-6-oxotetrahydropyrimidin-1(2H)-yl)chromane-6-carboxamide]",84 nM
5,"CCC1(CC)CC(=O)N([C@@H]2CCOc3ccc(C(=O)N[C@H]4CC(C)(C)Oc5ccc(Br)cc54)cc32)C(=N)N1 [Example 14A, (R)-N-((S)-6-bromo-2,2-dimethylchroman-4-yl)-4-(4,4-diethyl-2-imino-6-oxotetrahydropyrimidin-1(2H)-yl)chromane-6-carboxamide]",1 nM
6,"CCC1(CC)CC(=O)N([C@@H]2CCOc3ccc(C(=O)N[C@@H]4c5cc(Br)ccc5OC(C)(C)[C@H]4O)cc32)C(=N)N1 [Example 15A, (R)-N-((3S,4R)-6-bromo-3-hydroxy-2,2-dimethylchroman-4-yl)-4-(4,4-diethyl-2-imino-6-oxotetrahydropyrimidin-1(2H)-yl)chromane-6-carboxamide]",0.3 nM
7,"CCC1(CC)CC(=O)N([C@@H]2CC(COC)Oc3ccc(C(=O)N[C@@H]4c5ccccc5OC(C)(C)[C@H]4O)cc32)C(=N)N1 (stereo partly drawn) [Example 18A, (4R)-4-(4,4-diethyl-2-imino-6-oxotetrahydropyrimidin-1(2H)-yl)-N-((3S,4R)-3-hydroxy-2,2-dimethylchroman-4-yl)-2-(methoxymethyl)chromane-6-carboxamide]",0.8 nM
8,"CCC1(CC)CC(=O)N([C@@H]2CCOc3ccc(C(=O)N[C@@H]4c5cc(Cl)ccc5OC(C)(C)[C@H]4O)cc32)C(=N)N1 [Example 19A, (R)-N-((3S,4R)-6-chloro-3-hydroxy-2,2-dimethylchroman-4-yl)-4-(4,4-diethyl-2-imino-6-oxotetrahydropyrimidin-1(2H)-yl)chromane-6-carboxamide]",0.3 nM
9,"CCC1(CC)CC(=O)N([C@@H]2CCOc3ccc(C(=O)N[C@@H]4c5cc(C#N)ccc5OC(C)(C)[C@H]4O)cc32)C(=N)N1 [Example 20A, (R)-N-((3S,4R)-6-cyano-3-hydroxy-2,2-dimethylchroman-4-yl)-4-(4,4-diethyl-2-imino-6-oxotetrahydropyrimidin-1(2H)-yl)chromane-6-carboxamide]",0.8 nM
10,"CCC1(CC)CC(=O)N([C@@H]2CCOc3ccc(C(=O)N[C@H]4CC(C)(C)Oc5ccc(C#N)cc54)cc32)C(=N)N1 [Example 21A, (R)-N-((S)-6-cyano-2,2-dimethylchroman-4-yl)-4-(4,4-diethyl-2-imino-6-oxotetrahydropyrimidin-1(2H)-yl)chromane-6-carboxamide]",0.8 nM
11,"CCC1(CC)CC(=O)N([C@@H]2CC3(COC3)Oc3ccc(C(=O)N[C@H]4CC(C)(C)Oc5ccccc54)cc32)C(=N)N1 [Example 22A, (R)-4-(4,4-diethyl-2-imino-6-oxotetrahydropyrimidin-1(2H)-yl)-N-((S)-2,2-dimethylchroman-4-yl)spiro[chromane-2,3′-oxetane]-6-carboxamide]",0.7 nM
12,"CCC1(CC)CC(=O)N([C@@H]2CC3(COC3)Oc3ccc(C(=O)N[C@@H]4c5ccccc5C[C@H]4O)cc32)C(=N)N1 [Example 23A, (R)-4-(4,4-diethyl-2-imino-6-oxotetrahydropyrimidin-1(2H)-yl)-N-((1R,2R)-2-hydroxy-2,3-dihydro-1H-inden-1-yl)spiro[chromane-2,3′-oxetane]-6-carboxamide]",5 nM
13,"CCC1(CC)CC(=O)N([C@@H]2CC3(COC3)Oc3ccc(C(=O)N[C@@H]4c5ccccc5OC(C)(C)[C@H]4O)cc32)C(=N)N1 [Example 24A, (R)-4-(4,4-diethyl-2-imino-6-oxotetrahydropyrimidin-1(2H)-yl)-N-((3S,4R)-3-hydroxy-2,2-dimethylchroman-4-yl)spiro[chromane-2,3′-oxetane]-6-carboxamide]",9.3 nM
14,"CCC1(CC)CC(=O)N([C@@H]2CCOc3ccc(C(=O)N[C@@H]4c5cc(F)ccc5OC(C)(C)[C@H]4O)cc32)C(=N)N1 [Example 25A, (R)-4-(4,4-diethyl-2-imino-6-oxotetrahydropyrimidin-1(2H)-yl)-N-((3S,4R)-6-fluoro-3-hydroxy-2,2-dimethylchroman-4-yl)chromane-6-carboxamide]",0.5 nM
15,"CCC1(CC)CC(=O)N([C@@H]2CCOc3ccc(C(=O)N[C@H]4c5cc(F)ccc5OC(C)(C)[C@@H]4O)cc32)C(=N)N1 [Example 25B, (R)-4-(4,4-diethyl-2-imino-6-oxotetrahydropyrimidin-1(2H)-yl)-N-((3R,4S)-6-fluoro-3-hydroxy-2,2-dimethylchroman-4-yl)chromane-6-carboxamide]",59.8 nM
16,"CCC1(CC)CC(=O)N([C@@H]2CCOc3c(Cl)cc(C(=O)N[C@H]4CC(C)(C)Oc5ccccc54)cc32)C(=N)N1 [Example 26A, (R)-8-chloro-4-(4,4-diethyl-2-imino-6-oxotetrahydropyrimidin-1(2H)-yl)-N-((S)-2,2-dimethylchroman-4-yl)chromane-6-carboxamide]",1.3 nM
17,"CCC1(CC)CC(=O)N([C@@H]2CCOc3c(Cl)cc(C(=O)N[C@@H]4CC(C)(C)Oc5ccccc54)cc32)C(=N)N1 [Example 26B, (R)-8-chloro-4-(4,4-diethyl-2-imino-6-oxotetrahydropyrimidin-1(2H)-yl)-N-((R)-2,2-dimethylchroman-4-yl)chromane-6-carboxamide]",180 nM
18,"CCC1(CC)CC(=O)N([C@@H]2CCOc3c(C#N)cc(C(=O)N[C@H]4CC(C)(C)Oc5ccccc54)cc32)C(=N)N1 [Example 27A, (R)-8-cyano-4-(4,4-diethyl-2-imino-6-oxotetrahydropyrimidin-1yl)-N-((S)-2,2-dimethylchroman-4-yl)chromane-6-carboxamide]",1.3 nM
19,"CCC1(CC)CC(=O)N([C@@H]2CCOc3c(C#N)cc(C(=O)N[C@@H]4c5ccccc5OC(C)(C)[C@H]4O)cc32)C(=N)N1 [Example 28A, (R)-8-cyano-4-(4,4-diethyl-2-imino-6-oxotetrahydropyrimidin-1(2H)-yl)-N-((3S,4R)-3-hydroxy-2,2-dimethylchroman-4-yl)chromane-6-carboxamide]",1.8 nM
20,"CCC1(CC)CC(=O)N([C@@H]2CCOc3c(Cl)cc(C(=O)N[C@@H]4c5ccccc5OC(C)(C)[C@H]4O)cc32)C(=N)N1 [Example 29A, (R)-8-chloro-4-(4,4-diethyl-2-imino-6-oxotetrahydropyrimidin-1(2H)-yl)-N-((3S,4R)-3-hydroxy-2,2-dimethylchroman-4-yl)chromane-6-carboxamide]",1 nM
21,"CCC1(CC)CC(=O)N([C@@H]2CCOc3c(Cl)cc(C(=O)N[C@H]4c5ccccc5OC(C)(C)[C@@H]4O)cc32)C(=N)N1 [Example 29B, (R)-8-chloro-4-(4,4-diethyl-2-imino-6-oxotetrahydropyrimidin-1(2H)-yl)-N-((3R,4S)-3-hydroxy-2,2-dimethylchroman-4-yl)chromane-6-carboxamide]",39.7 nM
22,"CCC1(CC)CC(=O)N([C@@H]2CCOc3ccc(C(=O)N[C@@H]4c5ccccc5OC(C)(C)[C@H]4O)nc32)C(=N)N1 [Example 30A, (R)-4-(4,4-diethyl-2-imino-6-oxotetrahydropyrimidin-1(2H)-yl)-N-((3S,4R)-3-hydroxy-2,2-dimethylchroman-4-yl)-3,4-dihydro-2H-pyrano[3,2-b]pyridine-6-carboxamide]",0.8 nM
23,"CCC1(CC)CC(=O)N([C@@H]2CCOc3ccc(C(=O)N[C@@H]4CC(C)(C)Oc5ccccc54)nc32)C(=N)N1 [Example 31A, (R)-4-(4,4-diethyl-2-imino-6-oxotetrahydropyrimidin-1(2H)-yl)-N-((R)-2,2-dimethylchroman-4-yl)-3,4-dihydro-2H-pyrano[3,2-b]pyridine-6-carboxamide]",22 nM
24,"CCC1(CC)CC(=O)N([C@@H]2CCOc3ccc(C(=O)N[C@H]4CC(C)(C)Oc5ccccc54)nc32)C(=N)N1 [Example 31B, (R)-4-(4,4-diethyl-2-imino-6-oxotetrahydropyrimidin-1(2H)-yl)-N-((S)-2,2-dimethylchroman-4-yl)-3,4-dihydro-2H-pyrano[3,2-b]pyridine-6-carboxamide]",1 nM
